{"source": "BigSolDB 2.1"}
{"smiles": "Nc1ccc(N2CCOCC2=O)cc1", "values": [{"measurement": "solubility (mole fraction)", "setting": "in 1,4-dioxane, 278.15 K", "result": 0.00411}, {"measurement": "solubility (mole fraction)", "setting": "in 1,4-dioxane, 283.15 K", "result": 0.00529}, {"measurement": "solubility (mole fraction)", "setting": "in 1,4-dioxane, 288.15 K", "result": 0.00665}, {"measurement": "solubility (mole fraction)", "setting": "in 1,4-dioxane, 293.15 K", "result": 0.0083}, {"measurement": "solubility (mole fraction)", "setting": "in 1,4-dioxane, 298.15 K", "result": 0.0102}, {"measurement": "solubility (mole fraction)", "setting": "in 1,4-dioxane, 303.15 K", "result": 0.0125}, {"measurement": "solubility (mole fraction)", "setting": "in 1,4-dioxane, 308.15 K", "result": 0.0149}, {"measurement": "solubility (mole fraction)", "setting": "in 1,4-dioxane, 313.15 K", "result": 0.0178}, {"measurement": "solubility (mole fraction)", "setting": "in 1,4-dioxane, 318.15 K", "result": 0.0209}, {"measurement": "solubility (mole fraction)", "setting": "in 1,4-dioxane, 323.15 K", "result": 0.0244}, {"measurement": "solubility (mole fraction)", "setting": "in 1,4-dioxane, 328.15 K", "result": 0.0282}, {"measurement": "solubility (mole fraction)", "setting": "in 1,4-dioxane, 333.15 K", "result": 0.032}, {"measurement": "solubility (mole fraction)", "setting": "in THF, 278.15 K", "result": 0.00138}, {"measurement": "solubility (mole fraction)", "setting": "in THF, 283.15 K", "result": 0.00182}, {"measurement": "solubility (mole fraction)", "setting": "in THF, 288.15 K", "result": 0.00245}, {"measurement": "solubility (mole fraction)", "setting": "in THF, 293.15 K", "result": 0.00323}, {"measurement": "solubility (mole fraction)", "setting": "in THF, 298.15 K", "result": 0.00423}, {"measurement": "solubility (mole fraction)", "setting": "in THF, 303.15 K", "result": 0.00542}, {"measurement": "solubility (mole fraction)", "setting": "in THF, 308.15 K", "result": 0.00687}, {"measurement": "solubility (mole fraction)", "setting": "in THF, 313.15 K", "result": 0.00865}, {"measurement": "solubility (mole fraction)", "setting": "in THF, 318.15 K", "result": 0.0107}, {"measurement": "solubility (mole fraction)", "setting": "in THF, 323.15 K", "result": 0.0132}, {"measurement": "solubility (mole fraction)", "setting": "in THF, 328.15 K", "result": 0.0159}, {"measurement": "solubility (mole fraction)", "setting": "in THF, 333.15 K", "result": 0.0191}, {"measurement": "solubility (mole fraction)", "setting": "in ethanol, 278.15 K", "result": 0.00127}, {"measurement": "solubility (mole fraction)", "setting": "in ethanol, 283.15 K", "result": 0.00162}, {"measurement": "solubility (mole fraction)", "setting": "in ethanol, 288.15 K", "result": 0.00208}, {"measurement": "solubility (mole fraction)", "setting": "in ethanol, 293.15 K", "result": 0.0026}, {"measurement": "solubility (mole fraction)", "setting": "in ethanol, 298.15 K", "result": 0.00321}, {"measurement": "solubility (mole fraction)", "setting": "in ethanol, 303.15 K", "result": 0.00393}, {"measurement": "solubility (mole fraction)", "setting": "in ethanol, 308.15 K", "result": 0.00475}, {"measurement": "solubility (mole fraction)", "setting": "in ethanol, 313.15 K", "result": 0.00567}, {"measurement": "solubility (mole fraction)", "setting": "in ethanol, 318.15 K", "result": 0.00672}, {"measurement": "solubility (mole fraction)", "setting": "in ethanol, 323.15 K", "result": 0.00792}, {"measurement": "solubility (mole fraction)", "setting": "in ethanol, 328.15 K", "result": 0.00928}, {"measurement": "solubility (mole fraction)", "setting": "in ethanol, 333.15 K", "result": 0.0107}, {"measurement": "solubility (mole fraction)", "setting": "in ethyl acetate, 278.15 K", "result": 0.000559}, {"measurement": "solubility (mole fraction)", "setting": "in ethyl acetate, 283.15 K", "result": 0.000794}, {"measurement": "solubility (mole fraction)", "setting": "in ethyl acetate, 288.15 K", "result": 0.0011}, {"measurement": "solubility (mole fraction)", "setting": "in ethyl acetate, 293.15 K", "result": 0.00149}, {"measurement": "solubility (mole fraction)", "setting": "in ethyl acetate, 298.15 K", "result": 0.00196}, {"measurement": "solubility (mole fraction)", "setting": "in ethyl acetate, 303.15 K", "result": 0.00257}, {"measurement": "solubility (mole fraction)", "setting": "in ethyl acetate, 308.15 K", "result": 0.00326}, {"measurement": "solubility (mole fraction)", "setting": "in ethyl acetate, 313.15 K", "result": 0.00412}, {"measurement": "solubility (mole fraction)", "setting": "in ethyl acetate, 318.15 K", "result": 0.00509}, {"measurement": "solubility (mole fraction)", "setting": "in ethyl acetate, 323.15 K", "result": 0.0062}, {"measurement": "solubility (mole fraction)", "setting": "in ethyl acetate, 328.15 K", "result": 0.00743}, {"measurement": "solubility (mole fraction)", "setting": "in ethyl acetate, 333.15 K", "result": 0.00873}, {"measurement": "solubility (mole fraction)", "setting": "in methanol, 278.15 K", "result": 0.00172}, {"measurement": "solubility (mole fraction)", "setting": "in methanol, 283.15 K", "result": 0.00221}, {"measurement": "solubility (mole fraction)", "setting": "in methanol, 288.15 K", "result": 0.00285}, {"measurement": "solubility (mole fraction)", "setting": "in methanol, 293.15 K", "result": 0.00367}, {"measurement": "solubility (mole fraction)", "setting": "in methanol, 298.15 K", "result": 0.00463}, {"measurement": "solubility (mole fraction)", "setting": "in methanol, 303.15 K", "result": 0.00589}, {"measurement": "solubility (mole fraction)", "setting": "in methanol, 308.15 K", "result": 0.00751}, {"measurement": "solubility (mole fraction)", "setting": "in methanol, 313.15 K", "result": 0.00955}, {"measurement": "solubility (mole fraction)", "setting": "in methanol, 318.15 K", "result": 0.0121}, {"measurement": "solubility (mole fraction)", "setting": "in methanol, 323.15 K", "result": 0.0153}, {"measurement": "solubility (mole fraction)", "setting": "in methanol, 328.15 K", "result": 0.019}, {"measurement": "solubility (mole fraction)", "setting": "in methanol, 333.15 K", "result": 0.0239}, {"measurement": "solubility (mole fraction)", "setting": "in n-propanol, 278.15 K", "result": 0.000322}, {"measurement": "solubility (mole fraction)", "setting": "in n-propanol, 283.15 K", "result": 0.000404}, {"measurement": "solubility (mole fraction)", "setting": "in n-propanol, 288.15 K", "result": 0.000506}, {"measurement": "solubility (mole fraction)", "setting": "in n-propanol, 293.15 K", "result": 0.000649}, {"measurement": "solubility (mole fraction)", "setting": "in n-propanol, 298.15 K", "result": 0.000825}, {"measurement": "solubility (mole fraction)", "setting": "in n-propanol, 303.15 K", "result": 0.00105}, {"measurement": "solubility (mole fraction)", "setting": "in n-propanol, 308.15 K", "result": 0.00133}, {"measurement": "solubility (mole fraction)", "setting": "in n-propanol, 313.15 K", "result": 0.0017}, {"measurement": "solubility (mole fraction)", "setting": "in n-propanol, 318.15 K", "result": 0.00216}, {"measurement": "solubility (mole fraction)", "setting": "in n-propanol, 323.15 K", "result": 0.00274}, {"measurement": "solubility (mole fraction)", "setting": "in n-propanol, 328.15 K", "result": 0.00348}, {"measurement": "solubility (mole fraction)", "setting": "in n-propanol, 333.15 K", "result": 0.00443}]}
